We go through 14 molecules from ChEMBL document CHEMBL1129101 (Bioorg Med Chem Lett, 1996).

In one test the target is Histamine H2 receptor (Rattus norvegicus, UniProt P25102). Description: Antagonistic activity by inhibition histamine H2 receptor from rats. It counts as functional. The conditions noted are these: read-out: pA2 (converted).
Test [1] deals with T1, Gastrin/cholecystokinin type B receptor (Mus musculus, UniProt P56481).
T1 sequence (P56481 whole entry): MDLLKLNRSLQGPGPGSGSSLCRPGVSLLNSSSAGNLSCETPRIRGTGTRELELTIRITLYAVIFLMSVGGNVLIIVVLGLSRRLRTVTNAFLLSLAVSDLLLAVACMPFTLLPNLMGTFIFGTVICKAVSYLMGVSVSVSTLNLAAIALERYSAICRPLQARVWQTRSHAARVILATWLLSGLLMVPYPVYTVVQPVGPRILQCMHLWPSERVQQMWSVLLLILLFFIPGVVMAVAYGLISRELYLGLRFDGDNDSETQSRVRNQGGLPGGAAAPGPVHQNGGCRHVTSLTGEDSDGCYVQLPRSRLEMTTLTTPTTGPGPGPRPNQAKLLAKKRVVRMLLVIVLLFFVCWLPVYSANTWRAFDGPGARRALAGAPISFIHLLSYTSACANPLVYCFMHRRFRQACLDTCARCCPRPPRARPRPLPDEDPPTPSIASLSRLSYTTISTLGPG
Description: Inhibitory activity against Cholecystokinin type B receptor.

In test [2] the target is Cholecystokinin receptor (Mus musculus) (UniProt O08786+P56481). Put plainly: Ratio of IC50(gastrin) to IC50(CCK-A). It counts as protein assay.
The target of test [3] is T2, Cholecystokinin receptor type A (Mus musculus, UniProt O08786).
T2 sequence (O08786 whole entry): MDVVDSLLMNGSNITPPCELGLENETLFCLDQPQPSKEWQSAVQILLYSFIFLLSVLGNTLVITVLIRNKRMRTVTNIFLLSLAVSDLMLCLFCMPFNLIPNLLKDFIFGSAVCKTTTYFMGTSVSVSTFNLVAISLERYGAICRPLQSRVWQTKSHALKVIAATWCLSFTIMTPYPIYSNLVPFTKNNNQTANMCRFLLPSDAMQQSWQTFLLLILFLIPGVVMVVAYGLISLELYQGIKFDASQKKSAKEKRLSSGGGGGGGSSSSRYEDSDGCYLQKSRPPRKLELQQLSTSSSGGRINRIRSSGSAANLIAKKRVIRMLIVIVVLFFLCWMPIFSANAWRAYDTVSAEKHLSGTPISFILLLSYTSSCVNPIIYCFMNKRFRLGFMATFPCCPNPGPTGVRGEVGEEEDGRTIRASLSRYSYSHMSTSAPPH
Description: Inhibitory activity against Cholecystokinin type A receptor.

Each structure is given as a SMILES string. pIC50: −log10 of the molar value.

Sequence of Histamine H2 receptor (P25102 whole entry): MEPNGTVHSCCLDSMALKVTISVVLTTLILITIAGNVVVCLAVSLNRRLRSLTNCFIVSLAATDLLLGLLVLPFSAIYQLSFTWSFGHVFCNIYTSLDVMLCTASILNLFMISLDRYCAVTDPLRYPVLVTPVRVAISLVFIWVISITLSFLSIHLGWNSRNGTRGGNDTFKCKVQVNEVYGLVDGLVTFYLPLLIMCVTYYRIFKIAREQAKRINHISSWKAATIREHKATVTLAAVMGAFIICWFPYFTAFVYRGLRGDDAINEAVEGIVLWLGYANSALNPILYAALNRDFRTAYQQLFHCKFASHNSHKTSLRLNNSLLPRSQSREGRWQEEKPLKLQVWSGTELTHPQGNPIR

Regarding `Cc1cccc(NC(=O)N[C@@H]2N=C(c3cccc(OC(=O)NCCCC(=O)NCCCOc4cccc(CN5CCCCC5)c4)c3)c3ccccc3N(C)C2=O)c1`, the Kb on Histamine H2 receptor was 501 nM. Besides, the negative logarithm of the IC50 (pIC50) (commonly the IC50 on a negative log10 scale, so that one unit is a factor of ten) in test [1] was 6.34; in test [3], 5.42. In test [2], the Ratio amounted to 17.
For the molecule `CN1C(=O)[C@H](NC(=O)Nc2cccc(CCOC(=O)NCCCC(=O)NCCCOc3cccc(CN4CCCCC4)c3)c2)N=C(c2ccccc2)c2ccccc21`, the Kb on Histamine H2 receptor was 398 nM. In addition, the results for the pIC50 in test [1] and in test [3] were 6.74 and 5.30, respectively. Moreover, the Ratio in test [2] was found to be 217.
In the case of `CN1C(=O)[C@H](NC(=O)Nc2cccc(COC(=O)NCCNC(=O)CC(=O)NCCCOc3cccc(CN4CCCCC4)c3)c2)N=C(c2ccccc2)c2ccccc21`, the Kb at Histamine H2 receptor is 158 nM. Moreover, the pIC50 was 6.99 in test [1] and 5.09 in test [3]. Besides, the Ratio in test [2] came out at 432.
As for `CN1C(=O)[C@H](NC(=O)Nc2cccc(CCOC(=O)NCCC(=O)NCCCOc3cccc(CN4CCCCC4)c3)c2)N=C(c2ccccc2)c2ccccc21`, the Kb on Histamine H2 receptor is 1260 nM. Moreover, the pIC50 is 7.03 in test [1] and 5.38 in test [3]. In addition, the Ratio in test [2] was 156.
In the same order, the values of `CN1C(=O)[C@H](NC(=O)Nc2cccc(COC(=O)NCCN3CCN(C(=O)CNCCCOc4cccc(CN5CCCCC5)c4)CC3)c2)N=C(c2ccccc2)c2ccccc21` are 631 nM, 7.35, 6.13 and 106.
For the molecule `CN1C(=O)[C@H](NC(=O)Nc2cccc(CCOC(=O)NCCCC(=O)NCCSCc3csc(N=C(N)N)n3)c2)N=C(c2ccccc2)c2ccccc21`, the Kb on Histamine H2 receptor is 794 nM. Also, the figures for the pIC50 in test [1] and in test [3] were 6.52 and 5.89, respectively. The Ratio in test [2] was determined as 35.
Consider `CC(C)(C)OC(=O)NCCCC(=O)NCCSCc1csc(N=C(N)N)n1`, for which, on Histamine H2 receptor, the Kb was 50.1 nM.
In the case of `Cc1cccc(NC(=O)N[C@@H]2N=C(c3ccccc3)c3ccccc3N(CCOC(=O)NCCCC(=O)NCCCOc3cccc(CN4CCCCC4)c3)C2=O)c1`, on Histamine H2 receptor, the Kb was 1000 nM. Besides, the negative-log IC50 (pIC50) is 5.40 in test [1] and 5.34 in test [3]. Moreover, the Ratio in test [2] turned out to be 34.
Take `CN1C(=O)[C@H](NC(=O)Nc2cccc(COC(=O)NCCCN3CCN(C(=O)CNCCCOc4cccc(CN5CCCCC5)c4)CC3)c2)N=C(c2ccccc2)c2ccccc21`: at Histamine H2 receptor, the Kb is 316 nM. Further, the pIC50 in test [1] is 6.40; in test [3] it was 5.78. For the same molecule, the Ratio in test [2] is 183.
For `CN1C(=O)[C@H](NC(=O)Nc2cccc(COC(=O)NCCCC(=O)NCCCOc3cccc(CN4CCCCC4)c3)c2)N=C(c2ccccc2)c2ccccc21` the same measures were 251 nM, 7.19, 5.44 and 138.
On to `CC(C)(C)OC(=O)NCCCC(=O)NCCCOc1cccc(CN2CCCCC2)c1`, for which the Kb at Histamine H2 receptor was 15.8 nM.
`CN1C(=O)[C@H](NC(=O)Nc2cccc(COC(=O)NCCC(=O)NCCCOc3cccc(CN4CCCCC4)c3)c2)N=C(c2ccccc2)c2ccccc21`: at Histamine H2 receptor, the Kb was 316 nM. Further, the values for the negative-log IC50 (pIC50) in test [1] and in test [3] were 6.80 and 6.51, respectively. The Ratio in test [2] was 9.
As to `Cc1cccc(NC(=O)N[C@@H]2N=C(c3ccccc3)c3ccccc3N(CCOC(=O)NCCCC(=O)NCCSCc3csc(N=C(N)N)n3)C2=O)c1`, the Kb on Histamine H2 receptor was 3160 nM. Besides, the figures for the negative logarithm of the IC50 (pIC50) in test [1] and in test [3] were 6.03 and 5.36, respectively. In addition, the Ratio in test [2] came to 289.
For `CN1C(=O)[C@H](NC(=O)Nc2cccc(COC(=O)NCC(=O)NCCCOc3cccc(CN4CCCCC4)c3)c2)N=C(c2ccccc2)c2ccccc21` the same measures were 794 nM, 6.70, 5.21 and 555.
